Reference: US20240350494A1, “THERAPEUTIC MODULATION OF INTEGRINS” (Pliant Therapeutics, Inc., priority 2021, published 2024)

Columns and labels:
[1] = test system: Type I Collagen gene Col1a1 expression; experiment: Precision cut lung slices, acute bleomycin exposure, Col1a1 expression; format: cell-based, mice (C57BL/6); conditions: for Type I Collagen gene Col1a1 expression, normalized to DMSO control slices: 3 days culture, integrin inhibitors at IC50 for TGF-beta activation, pan-αV and ALK5 inhibitors at 10× reported IC50, FIG. 3A
Procedure: Mice (C57BL/6) were administered 3 U/kg of bleomycin (Teva Pharmaceuticals; North Wales, PA) on day 0 via oropharyngeal aspiration while under anesthesia. On day 14, precision cut lung slices were obtained. Following euthanization, 2% low gelling temp agarose was injected into the mouse lungs via the trachea. […] The lobes were then subjected to precision slicing to obtain samples for culture using a microtome (Compresstome VF-300-OZ, Precisionary; Greenville, NC). Individual slices were distributed in a multiwell culture plate and cultured for 3 days under control (DMSO) and test compound conditions.

lung Col1a1 expression = experiment: Precision cut lung slices, chronic bleomycin exposure, Col1a1 expression; format: cell-based, mice (C57BL/6); conditions: 7 days culture, ALK5 inhibitor at 10× IC50; for lung slice Col1a1 expression compared to DMSO vehicle control slices: nintedanib and pirfenidone at 10× therapeutic concentrations, FIG. 4A
Procedure: (§1) Mice (C57BL/6) were administered 3 U/kg of bleomycin (Teva Pharmaceuticals; North Wales, PA) on Day 0 and 1 U/kg of bleomycin on days 14, 28, 42 and 56 via oropharyngeal aspiration while under anesthesia. At day 70, 14 days after the final bleomycin insult, precision cut lung slices were obtained. Following euthanization, 2% low gelling temp agarose was injected into the mouse lungs via the trachea. […] The lobes were then subjected to precision slicing to obtain samples for culture using a microtome (Compresstome VF-300-OZ, Precisionary; Greenville, NC). Individual slices were distributed in a multiwell culture plate and cultured for 7 days under control (DMSO) and test compound conditions. The viability of the slices over the course of culturing was confirmed by WST-1 assay of mitochondrial activity.
During the culture period, slices in the control group were treated with DMSO and slices in the test group were treated with a DMSO solution of one of: the selective antibody αVβ6 inhibitor 3G9; the αVβ1-selective small molecule inhibitor; a combination of the selective antibody αVβ6 inhibitor 3G9 and the αVβ1-selective small molecule inhibitor; compound 5; and the small molecule ALK5 inhibitor. The selective αVβ1 and αVβ6 integrin inhibitors were analyzed at ≥their respective IC90 concentrations for inhibition of TGF-beta activation. Compound 5 was run at approximate IC50 for inhibition of TGF-beta activation by αVβ6.
as §1, with “following” for “after”
During the culture period, slices in the control group were treated with DMSO and slices in the test group were treated with a DMSO solution of one of: compound 5; nintedanib; pirfenidone; a combination of nintedanib and compound 5; a combination of pirfenidone and compound 5; or the small molecule ALK5 inhibitor. Compound 5 was […] effective to equal or exceed its respective IC50 values at αVβ6 and αVβ1. […] Nintendanib and pirfenidone were analyzed at concentrations 10× their reported therapeutic concentrations.

COL1A1 expression = experiment: Precision cut lung slices from human IPF explants, COL1A1 expression; format: cell-based; conditions: for COL1A1 expression, treatment alone: PCLS from 5-7 IPF samples, seven days, nintedanib 75 nM, pirfenidone 50 μm
Description: Explanted lung tissue was obtained from human IPF subjects and inflated with agarose as described in the preceding examples. Biopsy cores were obtained from the agarose-inflated lung tissue. The biopsy cores were subjected to precision slicing to obtain several hundred μm thick. Individual slices were distributed in a multiwell culture plate and cultured for […] under control (DMSO) and test compound conditions. The viability of the slices over the course of culturing was confirmed by WST-1 assay of mitochondrial activity.
PCLS from 5-7 idopathic pulmonary fibrosis (IPF) lung tissue samples were cultured for seven days with one of: DMSO; Compound 5 at 200 nM; nintedanib at 75 nM; pirfenidone at 50 μm; a combination of Compound 5 at 200 nM and nintedanib at 75 nM; a combination of Compound 5 at 200 nM and pirfenidone at 50 μm; or an Alk5 inhibitor at 1 μm. […] FIG. 4D is a bar graph showing relative expression of COL1A1 in precision cut lung slices (PCLS) from idopathic pulmonary fibrosis (IPF) lung tissue upon exposure to Compound 5, clinical standard of care compounds nintedanib (Nin) and pirfenidone (Pirf), and an ALK5 inhibitor, all versus DMSO control.
PCLS from a single IPF lung tissue sample were cultured for seven days with Compound 5 at concentrations of 200 μM, 2 nM, 60 nM, 200 nM, and 1 μM, along with 0.1% DMSO control and an Alk5 inhibitor at 1 μM. […] COL1A1 expression is also graphed for the PCLS in the presence of 0.1% DMSO control, and an Alk5 inhibitor at 1 μM.

## Cc1cccc(-c2n[nH]cc2-c2ccc(F)c(-c3cnn(CCO)c3)c2)n1 [small molecule ALK5 inhibitor, 4-[2-Fluoro-5-[3-(6-methyl-2-pyridinyl)-1H-pyrazol-4-yl]phenyl]-1H-pyrazole-1-ethanol]
[1]
  Type I Collagen gene Col1a1 expression, normalized to DMSO control slices: greatest decrease
Lung Col1a1 expression; Compound 5 at approximate IC50 (αVβ6), selective inhibitors at ≥IC90, FIG. 3B
  lung Col1a1 expression, normalized to DMSO control slices: greatest decrease
Lung Col1a1 expression
  lung slice Col1a1 expression compared to DMSO vehicle control slices: substantial, statistically significant (p<0.0001 vs vehicle) decrease
COL1A1 expression; human IPF slices, 3 days, 3G9 ≥400 ng/mL, compound 5 179 nM, ALK5 inhibitor 1 μM, FIG. 4C
  lung Col1a1 expression, normalized to DMSO control slices: substantial, statistically significant

## COC(=O)c1ccc2c(c1)NC(=O)/C2=C(\Nc1ccc(N(C)C(=O)CN2CCN(C)CC2)cc1)c1ccccc1 [nintedanib]
[1]; acute bleomycin injured lung slices, FIG. 4B
  increase in concentration over compound 5 needed to reduce lung slice Col1a1 expression by 50%: 5.2 fold
Lung Col1a1 expression
  lung slice Col1a1 expression compared to DMSO vehicle control slices: slight increase
COL1A1 expression
  COL1A1 expression, treatment alone: did not significantly reduce

## CC(C)(C)c1cc(Br)cc([C@H](CC(=O)O)NC(=O)CNC(=O)c2cc(O)cc(NC3=NCC(O)CN3)c2)c1 (stereo partly drawn) [second pan-αV small molecule inhibitor, (3S)—N-[3-hydroxy-5-[(1,4,5,6-tetrahydro-5-hydroxy-2-pyrimidinyl)amino]benzoyl]glycyl-3-[3-bromo-5-(1,1-dimethylethyl)phenyl]-β-alanine]
[1]
  Type I Collagen gene Col1a1 expression, normalized to DMSO control slices: decreased Type I Collagen gene Col1a1 expression comparably

## Cc1ccc(=O)n(-c2ccccc2)c1 [pirfenidone]
Lung Col1a1 expression
  lung slice Col1a1 expression compared to DMSO vehicle control slices: slight increase
COL1A1 expression
  COL1A1 expression, treatment alone: did not significantly reduce
